Measured values from PMC2114737 (The Journal of Cell Biology, 1987).
One block for each compound: values may come before it.

Columns and labels:
[1] = target: T1, N-formyl peptide receptor (Homo sapiens, UniProt P21462); assay: Effect of guanine nucleotides on receptor affinity states of fast membranes; type: binding
T1 sequence (P21462 1-350): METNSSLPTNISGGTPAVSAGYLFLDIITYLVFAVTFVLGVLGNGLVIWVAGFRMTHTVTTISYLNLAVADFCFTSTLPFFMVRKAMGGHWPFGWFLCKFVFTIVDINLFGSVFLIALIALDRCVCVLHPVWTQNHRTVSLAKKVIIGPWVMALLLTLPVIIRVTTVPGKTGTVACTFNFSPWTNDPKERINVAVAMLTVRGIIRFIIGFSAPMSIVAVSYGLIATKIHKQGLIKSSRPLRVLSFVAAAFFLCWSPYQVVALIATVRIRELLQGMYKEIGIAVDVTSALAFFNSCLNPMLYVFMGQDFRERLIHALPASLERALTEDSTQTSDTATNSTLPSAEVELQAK

[2] = target: T1, N-formyl peptide receptor; type: binding; conditions: Table II; fast microsomes, unstimulated; mean, SD, n = 5

Effect on state C receptor ([1]; fast membranes from Fl-peptide-stimulated cells, GTP-γ-S, listed as GTP-gamma-S): insensitive
Compound: Nc1nc2c(ncn2[C@@H]2O[C@H](COP(=O)(O)OP(=O)(O)OP(O)(O)=S)[C@@H](O)[C@H]2O)c(=O)[nH]1 [GTP-y-S]

Percentage of receptor associated with State B [2]: 47%
Compound: N-formyl-Nle-Leu-Phe-Nle-Tyr- Lys-fluorescein [Fl-peptide]

Compound: Nc1nc2c(ncn2[C@@H]2O[C@H](COP(=O)(O)OP(=O)(O)OP(=O)(O)O)[C@@H](O)[C@H]2O)c(=O)[nH]1 [GTP]
Effect on state B dissociation rate / conversion to state A ([1]; membranes from unstimulated cells, nucleotide 10 μM where stated): converted to the fastest ligand-dissociation state (state A)
